Laboratory results reported in the supplement of paper PMC11061612.

Key:
[1] = system: COLO-680N (Esophageal Squamous Cell Carcinoma); assay: Bliss excess, mean over the matrix (fraction); higher = more synergy
In short: (§1)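 Bliss excess equals the observed combination effect minus the expected value EA + EB − EA·EB, where EA and EB are the effects of each agent alone. Combination Emax is the second-highest inhibition within the matrix. Inhibition was scaled from CellTiter-Glo 2.0 luminescence, with 0 set by vehicle wells and 1 by blank wells, after 72 hours of two-drug dosing of cells plated in 1536-well plates.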

[2] = system: HEC-1 (Endometrial Carcinoma); assay: as above
In short: as §1

[3] = system: NCI-H23 (Lung Adenocarcinoma); assay: as above
In short: as §1

[4] = system: 23132-87 (Gastric Carcinoma); assay: combination Emax (second highest fraction inhibited in the dose matrix, 72 h); higher = more inhibition; extreme values may be limits of the assay
In short: as §1

A2058 (Melanoma) = assay: as above
In short: as §1

[5] = system: HCT-15 (Colorectal Carcinoma); assay: as above
In short: as §1

[6] = system: HSC-39 (Gastric Carcinoma); assay: as above
In short: as §1

[7] = system: L-1236 (Hodgkin's Lymphoma); assay: as above
In short: as §1

LN-229 (Glioblastoma) = assay: as above
In short: as §1

[8] = system: LXF-289 (Lung Adenocarcinoma); assay: as above
In short: as §1

[9] = system: MKN45 (Gastric Carcinoma); assay: as above
In short: as §1

[10] = system: NCI-H446 (Small Cell Lung Carcinoma); assay: as above
In short: as §1

[11] = system: OVMIU (Ovarian Carcinoma); assay: as above
In short: as §1

[12] = system: PANC-03-27 (Pancreatic Carcinoma); assay: as above
In short: as §1

[13] = system: REH (B-Lymphoblastic Leukemia); assay: as above
In short: as §1

[14] = system: RERF-GC-1B (Gastric Carcinoma); assay: as above
In short: as §1

[15] = system: RERF-LC-Sq1 (Squamous Cell Lung Carcinoma); assay: as above
In short: as §1

[16] = system: SHP-77 (Small Cell Lung Carcinoma); assay: as above
In short: as §1

[17] = system: SK-PN-DW (Other Solid Carcinomas); assay: as above
In short: as §1

[18] = system: VAL (B-Cell Non-Hodgkin's Lymphoma); assay: as above
In short: as §1

SMILES | Bliss excess [1] | Bliss excess [2] | Bliss excess [3] | combination Emax [4] | combination Emax (A2058 (Melanoma)) | combination Emax [5] | combination Emax [6] | combination Emax [7] | combination Emax (LN-229 (Glioblastoma)) | combination Emax [8] | combination Emax [9] | combination Emax [10] | combination Emax [11] | combination Emax [12] | combination Emax [13] | combination Emax [14] | combination Emax [15] | combination Emax [16] | combination Emax [17] | combination Emax [18]
CN(CCO)CC[C@H](CSc1ccccc1)Nc1ccc(S(=O)(=O)NC(=O)c2ccc(N3CCC([C@@H](O)c4ccccc4-c4ccc(Cl)cc4)CC3)cc2)cc1S(=O)(=O)C(F)(F)F [AZD4320] + CCN(CCO)CCCOc1ccc2c(Nc3cc(CC(=O)Nc4cccc(F)c4)[nH]n3)ncnc2c1 [AZD2811] (first compound max 1 µM, 7x7, partner max 1 µM) | -0.0373 | -0.0049 | 0.0244 | 0.258 | 0.47 | 0.135 | 0.966 | 0.961 | 0.185 | 0.471 | 0.316 | 0.991 | 0.802 | 0.638 | 1 | 0.568 | 0.275 | 0.65 | 0.719 | 1
CN(CCO)CC[C@H](CSc1ccccc1)Nc1ccc(S(=O)(=O)NC(=O)c2ccc(N3CCC([C@@H](O)c4ccccc4-c4ccc(Cl)cc4)CC3)cc2)cc1S(=O)(=O)C(F)(F)F [AZD4320] + CN(C)CCCOc1ccc(-c2ccc3ncc4c(c3c2)n(C2CCOCC2)c(=O)n4C)cn1 [AZD0156] (first compound max 1 µM, 7x7, partner max 1 µM) | -0.028 | -0.0414 | -0.0118 | 0.148 | 0.103 | 0.111 | 0.279 | 0.992 | 0.142 | 0.182 | 0.316 | 0.663 | 0.771 | 0.33 | 1 | 0.379 | 0.194 | 0.585 | 0.326 | 1
CN(CCO)CC[C@H](CSc1ccccc1)Nc1ccc(S(=O)(=O)NC(=O)c2ccc(N3CCC([C@@H](O)c4ccccc4-c4ccc(Cl)cc4)CC3)cc2)cc1S(=O)(=O)C(F)(F)F [AZD4320] + C[C@@H]1COCCN1C2=NC(=NC(=C2)C3(CC3)[S@](=N)(=O)C)C4=C5C=CNC5=NC=C4 [AZD6738] (first compound max 1 µM, 7x7, partner max 10 µM) | -0.0302 | 0.0028 | -0.0073 | 0.84 | 0.782 | 0.756 | 1 | 0.992 | 0.797 | 0.689 | 0.8 | 0.941 | 0.824 | 0.926 | 1 | 0.621 | 0.791 | 0.662 | 0.947 | 1
